# According to patent publication US20260225997A1, “IONIZABLE AMINE LIPIDS” (Intellia Therapeutics, Inc., priority 2018, published 2026):
# Where two headings read alike, the source gives them in different places.
# Assays:
# [1] = pKa measurement of unformulated amine lipid (fluorescence, method of Jayaraman et al.); type: physicochemical; settings: 100 μM in 0.1 M phosphate buffer pH 4.5-9.0
# Method: The pKa of each amine lipid was determined according to the method in Jayaraman, et al. (Angewandte Chemie, 2012) with the following adaptations. […] Lipid was diluted to 100 μM in 0.1 M phosphate buffer (Boston Bioproducts) where the pH ranged from 4.5-9.0. Fluorescence intensity was measured using excitation and emission wavelengths of 321 nm and 448 nm.
# B2M = B2M editing in mouse liver by NGS after i.v. LNP delivery of Cas9 mRNA and sgRNA; type: in vivo; settings: CD-1 female mice; for Editing (%) of B2M in mouse liver: Example 52: LNP single dose 0.1 mg/kg i.v., sgRNA G650:Cas9 mRNA 1:1, NGS; for % Editing B2M in mouse liver: 7 days post-dose, G650 1:1
# Method: Preparations of various LNP compositions were prepared with amine lipids. In assays for percent liver editing in mice, Cas9 mRNA and chemically modified sgRNA were formulated in LNPs, at either a 1:1 w/w ratio or a 1:2 w/w ratio. LNPs are formulated with a composition of a given ionizable lipid (e.g. an amine lipid), DSPC, cholesterol, and PEG-2k-DMG, with a 6.0 N:P ratio.
# LNPs were administered to mice by a single dose at 0.1 mg/kg, unless otherwise noted and genomic DNA was isolated for NGS analysis as described below.
# CD-1 female mice, ranging from 6-10 weeks of age were used in each study. Animals were weighed and grouped according to body weight for preparing dosing solutions based on group average weight. LNPs were dosed via the lateral tail vein in a volume of 0.2 mL per animal (approximately 10 mL per kilogram body weight). The animals were periodically observed post dose for adverse effects for at least 24 hours post dose. Animals were euthanized at 6 or 7 days by exsanguination via cardiac puncture under isoflurane anesthesia. Blood was collected into serum separator tubes or into tubes containing buffered sodium citrate for plasma as described herein. For studies involving in vivo editing, liver tissue was collected from each animal for DNA extraction and analysis.
# Cohorts of mice were measured for liver editing by Next-Generation Sequencing (NGS).
# In brief, to quantitatively determine the efficiency of editing at the target location in the genome, genomic DNA was isolated and deep sequencing was utilized to identify the presence of insertions and deletions introduced by gene editing.
# PCR primers were designed around the target site (e.g., B2M), and the genomic area of interest was amplified. Additional PCR was performed according to the manufacturer's protocols (Illumina) to add the necessary chemistry for sequencing. The amplicons were sequenced on an Illumina MiSeq instrument. The reads were aligned to the […] after eliminating those having low quality scores. The resulting files containing the reads were mapped to the reference genome (BAM files), where reads that overlapped the target region of interest were selected and the number of wild type reads versus the number of reads which contain an insertion, substitution, or deletion was calculated.
# The editing percentage (e.g., the “editing efficiency” or “percent editing”) is defined as the total number of sequence reads with insertions or deletions over the total number of sequence reads, including wild type.
# CD-1 female mice were dosed i.v. at 0.1 mpk or 0.3 mpk. […] For animals dosed with G282 targeting TTR, blood and the liver were collected and serum TTR and editing were measured. For animals dosed with G650 targeting B2M, liver was collected and editing was measured.
# TTR [2] = test: TTR editing in mouse liver by NGS after i.v. LNP delivery of Cas9 mRNA and sgRNA; type: in vivo; settings: CD-1 female mice; for Editing Mean % Indel: G282 1:1
# Procedure, shortened: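 Cas9 mRNA and chemically modified sgRNA were co-formulated in LNPs made of an ionizable amine lipid, DSPC, cholesterol and PEG-2k-DMG at a 6.0 N:P ratio. CD-1 female mice aged 6-10 weeks received tail-vein injections of 0.2 mL. Liver genomic DNA was then amplified around the target site and sequenced on an Illumina MiSeq, with editing calculated as indel-containing reads over total reads.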
# TTR [3] = test: Transthyretin (TTR) ELISA analysis of mouse serum after LNP dosing; type: in vivo; settings: for response vs control in vivo at 0.1 mg/kg: read-out: Serum TTR % TSS
# Procedure, shortened: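 Female CD-1 mice aged 6-10 weeks were grouped by body weight and given LNPs by lateral tail vein injection (0.2 mL per animal, about 10 mL per kilogram). Mice were bled by cardiac puncture under isoflurane into serum separator tubes. Serum was diluted 10,000-fold for the 0.1 mpk dose, and total TTR was quantified with a Mouse Prealbumin (Transthyretin) ELISA Kit following the kit directions.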
# [4] = LNP average particle size and polydispersity by dynamic light scattering (Malvern Zetasizer); type: physicochemical; settings: G282 1:1
# Source text: The LNPs have a size of about 1 to about 1,000 nm, about 10 to about 500 nm, about 20 to about 500 nm, in a sub-embodiment about 50 to about 400 nm, in a sub-embodiment about 50 to about 300 nm, in a sub-embodiment about 50 to about 200 nm, and in a sub-embodiment about 50 to about 150 nm, and in another sub-embodiment about 60 to about 120 nm. Preferably, the LNPs have a size from about 60 nm to about 100 nm. The average sizes (diameters) of the fully formed LNP, may be measured by dynamic light scattering on a Malvern Zetasizer. The LNP sample is diluted in phosphate buffered saline (PBS) so that the count rate is approximately 200-400 kcps. The data is presented as a weighted average of the intensity measure.
# The LNPs disclosed herein have a size (e.g. Z-average diameter) of about 1 to about 250 nm. In some embodiments, the LNPs have a size of about 10 to about 200 nm. In further embodiments, the LNPs have a size of about 20 to about 150 nm. In some embodiments, the LNPs have a size of about 50 to about 150 nm. In some embodiments, the LNPs have a size of about 50 to about 100 nm. In some embodiments, the LNPs have a size of about 50 to about 120 nm. In some embodiments, the LNPs have a size of about 60 to about 100 nm. In some embodiments, the LNPs have a size of about 75 to about 150 nm. In some embodiments, the LNPs have a size of about 75 to about 120 nm. In some embodiments, the LNPs have a size of about 75 to about 100 nm. Unless indicated otherwise, all sizes referred to herein are the average sizes (diameters) of the fully formed nanoparticles, as measured by dynamic light scattering on a Malvern Zetasizer. The nanoparticle sample is diluted in phosphate buffered saline (PBS) so that the count rate is approximately 200-400 kcps. The data is presented as a weighted-average of the intensity measure (Z-average diameter).
# Dynamic Light Scattering (“DLS”) is used to characterize the polydispersity index (“pdi”) and size of the LNPs of the present disclosure. DLS measures the scattering of light that results from subjecting a sample to a light source. PDI, as determined from DLS measurements, represents the distribution of particle size (around the mean particle size) in a population, with a perfectly uniform population having a PDI of zero.
# LNP compositions are analyzed for average particle size, polydispersity index (pdi), total RNA content, encapsulation efficiency of RNA, and zeta potential. LNP compositions may be further characterized by lipid analysis, AF4-MALS, NTA, and/or cryo-EM. Average particle size and polydispersity are measured by dynamic light scattering (DLS) using a Malvern Zetasizer DLS instrument. LNP samples were diluted with PBS buffer prior to being measured by DLS. Z-average diameter which is an intensity-based measurement of average particle size was reported along with number average diameter and pdi. A Malvern Zetasizer instrument is also used to measure the zeta potential of the LNP. Samples are diluted 1:17 (50 μL into 800 μL) in 0.1×PBS, pH 7.4 prior to measurement.
# [5] = RNA encapsulation efficiency of LNP (Ribogreen fluorescence assay); type: physicochemical; settings: G282 (TTR) 1:1 w/w, N:P 6.0
# Method: A fluorescence-based assay (Ribogreen®, ThermoFisher Scientific) is used to determine total RNA concentration and free RNA. Encapsulation efficiency is calculated as (Total RNA−Free RNA)/Total RNA. LNP samples are diluted appropriately with 1× TE buffer containing 0.2% Triton-X 100 to determine total RNA or 1× TE buffer to determine free RNA. Standard curves are prepared by utilizing the starting RNA solution used to make the compositions and diluted in 1× TE buffer+/−0.2% Triton-X 100. Diluted RiboGreen® dye (according to the manufacturer's instructions) is then added to each of the standards and samples and allowed to incubate for approximately 10 minutes at room temperature, in the absence of light. A SpectraMax M5 Microplate Reader (Molecular Devices) is used to read the samples with excitation, auto cutoff and emission wavelengths set to 488 nm, 515 nm, and 525 nm respectively. Total RNA and free RNA are determined from the appropriate standard curves.
# Encapsulation efficiency is calculated as (Total RNA−Free RNA)/Total RNA. The same procedure may be used for determining the encapsulation efficiency of a DNA-based cargo component. For single-strand DNA Oligreen Dye may be used, and for double-strand DNA, Picogreen Dye.
# [6] = Example 56: 0.1 mpk i.v., 7 days post-dose, G282
# [7] = Example 58: 0.1 mpk i.v., 6 days post-dose
# [8] = Example 58: 0.1 mpk i.v., 6 days post-dose, G282 1:1
# [9] = Mus musculus, iv, 144 h, Example 58: 0.1 mpk i.v., 6 days post-dose, G282 1:1
smiles,measurement,setting,value
CCCCCCCCCOC(=O)CCCCCCCN(CCO)CCCCCCCCCC(OCCCCCCCC)OCCCCCCCC [Compound 5],pKa,[1],7.08
same,Editing (%) of B2M in mouse liver,B2M,13.2%
same,Editing %,TTR [2]; [6],9%
same,Serum TTR,TTR [3]; [6],738 µg/mL
same,Serum TTR (% TSS),TTR [3]; [6],92 % TSS
CCCCCCCCCOC(=O)CCCCCCCN(CCO)CCCCCCCC(OCCCCCCCCC)OCCCCCCCCC [Compound 2],pKa,[1],6.23
same,Editing (%) of B2M in mouse liver,B2M,17.7%
"CCCCCCCCCOC(=O)CCCCCCCN(CCO)CCCCCCCCCC(OCCCCCCCCC)OCCCCCCCCC [Compound 6, 8-[10,10-di(nonoxy)decyl-(2-hydroxyethyl)amino]octanoate]",pKa,[1],6.3
same,Editing (%) of B2M in mouse liver,B2M,8.2%
"CCCCCCCCCOC(=O)CCCCCCCN(CCO)CCCCCCCCCC(OCCCCCCC)OCCCCCCC [Compound 4, nonyl 8-[10, 10-diheptoxydecyl(2-hydroxyethyl)amino]octanoate]",pKa,[1],7.04
same,% Editing B2M in mouse liver,B2M; Example 54: 0.1 mpk i.v.,29%
same,% Editing B2M in mouse liver,B2M; Example 54: 0.3 mpk i.v.,57%
same,Editing Mean % Indel,"TTR [2]; Example 61: 0.1 mpk i.v., 7 days post-dose",46.7%
same,Serum TTR,"TTR [3]; Example 61: 0.1 mpk i.v., 7 days post-dose, G282 1:1",333 µg/mL
same,response vs control in vivo at 0.1 mg/kg,"TTR [3]; Mus musculus, iv, 168 h, Example 61: 0.1 mpk i.v., 7 days post-dose, G282 1:1",26%
"CCCCCCCCCCCOC(=O)CCCCCN(CCO)CCCCCCCC(OCCCCCCCC)OCCCCCCCC [Compound 13, undecyl 6-((8,8-bis(octyloxy)octyl)(2-hydroxyethyl)amino)hexanoate]",pKa,[1],6.35
same,Num Ave Size (nm),"[4]; Table 14, Example 58: LNP",63.34 nm
same,PDI,"[4]; Table 14, Example 58: LNP",0.04
same,Z-Ave Size (nm),"[4]; Table 14, Example 58: LNP",77.34 nm
same,Encapsulation (%),"[5]; Table 14, Example 58: LNP",98%
same,Editing Mean % Indel,TTR [2]; [7],22.6%
same,Serum TTR,TTR [3]; [8],703 µg/mL
same,response vs control in vivo at 0.1 mg/kg,TTR [3]; [9],71%
"CCCCCCCCOC(CCCCCCCN(CCO)CCCCCCCCCC(=O)OCCCCCCC)OCCCCCCCC [Compound 11, heptyl 10-((8,8-bis(octyloxy)octyl)(2-hydroxyethyl)amino)decanoate]",pKa,[1],6.35
same,Num Ave Size (nm),"[4]; Table 14, Example 58: LNP",54.58 nm
same,PDI,"[4]; Table 14, Example 58: LNP",0.137
same,Z-Ave Size (nm),"[4]; Table 14, Example 58: LNP",89.3 nm
same,Encapsulation (%),"[5]; Table 14, Example 58: LNP",86%
same,Editing Mean % Indel,TTR [2]; [7],29.4%
same,Serum TTR,TTR [3]; [8],553 µg/mL
same,response vs control in vivo at 0.1 mg/kg,TTR [3]; [9],56%
"CCCCCCCCCOC(=O)CCCCCCCN(CCCCCCC(OCCCCCCCC)OCCCCCCCC)CCCNC(=O)OC [Compound 43, nonyl 8-((7,7-bis(octyloxy)heptyl)(3-((methoxycarbonyl)amino)propyl)amino)octanoate]",pKa,[1],6.02
same,Num Ave Size (nm),"[4]; Table 26, Example 64: LNP",56 nm
same,PDI,"[4]; Table 26, Example 64: LNP",0.05
same,Z-Ave Size (nm),"[4]; Table 26, Example 64: LNP",74 nm
same,Encapsulation (%),"[5]; Table 26, Example 64: LNP",94%
same,Editing Mean % Indel,"TTR [2]; Example 64: Dose 0.03 mpk (table) i.v., 7 days post-dose",8.6%
same,Serum TTR,"TTR [3]; Example 64: Dose 0.03 mpk (table) i.v., 7 days post-dose, G282 1:1",619.2 µg/mL
same,inhibition in vivo at 0.03 mg/kg,"TTR [3]; Mus musculus, iv, 168 h, Example 64: Dose 0.03 mpk (table) i.v., 7 days post-dose, G282 1:1, read-out: Serum TTR (% KD)",-8.1%
